Source: patent US8124111B2, “Immunomodulation by altering sphingosine 1-phosphate lyase (SPL) activity” (Children's Hospital & Research Center at Oakland, priority 2005, dated 2012)
One block for each compound: values may come before it.

Key:
[1] = target: T1, SPL (Homo sapiens, UniProt O95470); assay: FTY720-P metabolism: stability in the presence of SPL, recovery quantified by HPLC; type: biochemical; parameters: expressed in transfected cells; host or cells: HEK293 infected with adenoviral vector; conditions: for stability in the presence of SPL (amount recovered by HPLC): incubated 0-24 hours with extracts of HEK293 cells overexpressing human SPL, standard SPL reaction conditions
T1 sequence (O95470 1-568): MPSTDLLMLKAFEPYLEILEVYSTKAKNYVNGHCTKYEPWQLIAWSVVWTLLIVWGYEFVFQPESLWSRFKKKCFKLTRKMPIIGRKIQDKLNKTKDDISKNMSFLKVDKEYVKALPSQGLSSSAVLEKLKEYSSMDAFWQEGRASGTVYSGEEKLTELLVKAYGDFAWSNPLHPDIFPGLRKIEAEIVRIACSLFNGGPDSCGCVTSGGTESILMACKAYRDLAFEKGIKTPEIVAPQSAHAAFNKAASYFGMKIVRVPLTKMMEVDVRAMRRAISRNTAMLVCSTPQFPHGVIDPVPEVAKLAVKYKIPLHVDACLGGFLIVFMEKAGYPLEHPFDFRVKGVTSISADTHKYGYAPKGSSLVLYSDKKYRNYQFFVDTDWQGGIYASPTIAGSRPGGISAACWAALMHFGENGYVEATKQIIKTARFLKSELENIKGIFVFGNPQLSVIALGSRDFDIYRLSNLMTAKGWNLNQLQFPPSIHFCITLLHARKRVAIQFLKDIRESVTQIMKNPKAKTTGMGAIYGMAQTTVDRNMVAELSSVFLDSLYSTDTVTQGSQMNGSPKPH
Method: (A) Twenty nanomoles of FTY720-P were incubated with SPL enzyme for 0-24 hours under standard SPL reaction conditions in the absence of dihydrosphingosine 1-phosphate substrate. At the indicated times the reaction was stopped, and FTY720-P was recovered and quantified by HPLC. (B) Twenty nanomoles of S1P were incubated with extracts from cells overexpressing SPL for 0-24 hours, or alternatively, with extracts from cells containing pcDNA3.0 vector control which had no appreciable SPL activity (PC) for 2 hours. S1P was recovered and quantified by HPLC.
FTY720-P metabolism: Whole cell extracts of HEK293 cells stably overexpressing human SPL were prepared as previously described (Reiss et al., (2004) J Biol Chem 279, 1281-1290). These extracts contained approximately 700 picomoles/mg protein/minute of SPL activity. Twenty nanomoles FTY720-P were suspended in SPL reaction buffer (Van Veldhoven et al., (1991) J Biol Chem 266, 12502-12507), and 25 microliters of whole cell extract were added to initiate the reaction. At various time points, reaction was stopped by addition of a 2 ml mixture of chloroform and methanol (2:1 v/v), 1 ml of 1M KCl, 0.1 ml concentrated HCl. Sample was mixed by vortexing and centrifuged at 1200 rpm for 5 min. […] After derivatization with OPA, the sample was injected onto the HPLC for quantification. The HPLC analysis was conducted using a Beckman (Torrance, Calif., USA) system Gold 125 solvent module with a Spectra-Physics SP8410 fluorescence detector and a C18 (2) Luna 3 μm, 75×4.6 mm column from Phenomenex (CA). […] Recovery of S1P was determined by HPLC quantitation, as described below for S1P measurements in mouse tissues.
Confirmation of FTY720-P by LCMS: Samples corresponding to FTY720-P peak identified on HPLC were evaluated by LCMS to confirm FTY720-P by mass analysis. Twenty microliters of sample were injected into the LCMS and mass spectrum scans from 300 to 500 m/z and specific ions m/Z 388 and 410 were quantified for FTY720-P. A reverse phase C18 column from Phenomenex (2.1 mm×15 cm) was used. […]

[2] = target: T1, SPL; conditions: cited from earlier work
[3] = system: human SPL luciferase reporter construct; assay: SPL gene expression, human SPL luciferase reporter in HEK293 cells; type: cell-based; conditions: 0.3 μM or 3.0 μM, 24 hours
Method: (A) SPL gene expression. HEK293 cells were co-transfected with a human SPL luciferase reporter construct and the sea pansy luciferase reporter as a control for transfection efficiency. Twenty-four hours after transfection, cells were treated with 0.3 μM FTY720, 3.0 μM FTY720 or vehicle and incubated for another 24 hours at 37° C. Luciferase activity was then determined as a measure of expression, as described in Experimental Methods. Values shown are luciferase activity normalized to sea pansy luciferase; (B) SPL protein expression. Thymic extracts from control mice (time 0) and mice treated with FTY720 for 24 hours were evaluated for SPL protein expression by immunoblotting. Actin was used as a loading control.
SPL expression: To evaluate the effect of FTY720 and FTY720-P on SPL gene expression, HEK293 cells were treated for 30 minutes with 3 μM of either drug, followed by transfection with pSPL-BamHI, a human SPL-luciferase reporter construct. After 48 hours, reporter expression was determined by luciferase activity as described (Oskouian et al., (2005) J Biol Chem 280, 18403-18410)). Western blotting of mouse tissue extracts was performed using a 1:2000 dilution of polyclonal sera raised against the murine SPL C-terminal peptide: (NH2)—V-T-Q-G-N-Q-M-N-G-S—P—K—P—R—(COOH). [SEQ ID NO:11] […]

[4] = target: T1, SPL; assay: Inhibition of SPL activity in vitro (whole cell extracts of HEK293 cells with human SPL adenoviral construct); type: biochemical; parameters: expressed in transfected cells; host or cells: HEK293 infected with adenoviral vector
Method: Various concentrations of FTY720 or its phosphorylated derivative (FTY720P) were incubated for 30 minutes on ice with whole cell extracts containing high SPL activity by virtue of a human SPL adenoviral expression construct. SPL activity was determined. (A) FTY720; (B) FTY720-P.
SPL enzyme assay: Tissues were homogenized by sonication in 9 volumes of ice-cold homogenization buffer (5 mM MOPS pH 7.5, 1 mM DTT, 1 mM EDTA, 0.25 M sucrose, and 5 micrograms/ml each chymostatin, leupeptin, pepstatin A and antipain). SPL assays were conducted using 50 micrograms protein per assay and radioactive [4,5 ^3H]DHS1P substrate, as described previously (Reiss et al., (2004) J Biol Chem 279, 1281-1290). For in vitro FTY720 and FTY720-P experiments, drug was incubated with whole cell extracts prepared from HEK293 cells infected with an adenoviral vector expressing human SPL. These extracts contained approximately 200 picomoles/mg protein/minute SPL activity. Drug was incubated with extracts for 30 minutes, followed by addition of extracts to reaction buffer and substrate to initiate the reaction.
Although treatment with FTY720 was associated with low (nanomolar) circulating drug levels, it was possible that local concentrations within cells and subcellular compartments may have been considerably higher, since FTY720 has been reported to be actively transported into cells by the actions of drug transporters that recognize long chain bases (Honig et al., (2003) J Clin Invest 111, 627-637).

[5] = system: C3H murine splenocytes and thymocytes
Method: Cellular Immune Functions—Mitogen Induced Lymphoproliferation: Spleen and thymus tissues were harvested from wild type C3H mice, and cell suspensions were prepared as described previously (Mishell et al., (1980) in Selected Methods in Cellular Immunology (Mishell, B., and Shiigi, S., eds), pp. 3-27, WH Freeman and Company, San Francisco). Cells were dispersed in sterile medium in 96 well microtiter plates (Falcon) at a concentration of 1×10^6 cells/ml for spleen and 5×10^6 cells/ml for thymus. […] Cell proliferation was determined after 48 and 72 hours using the Cell Titer 96 Non-Radioactive Cell Proliferation Assay from Promega (Mannheim, Germany), according to the manufacturer's instructions.

- stability in the presence of SPL (amount recovered by HPLC) [1]: diminished
SMILES: CCCCCCCCCCCCC/C=C/[C@@H](O)[C@@H](N)COP(=O)(O)O [S1P, Sphingosine-1-phosphate]

SMILES: Cc1ncc(CO)c(C)c1O [deoxypyridoxine]
- altering SPL activity [2]: capable of altering SPL activity

- dose dependence of SPL inhibition in vitro [4]: not dose-dependent
- only concentration that was inhibitory to SPL activity in vitro ([4]; 30 minutes incubation with extracts): 30 µM
- stability in the presence of SPL (amount recovered by HPLC) [1]: remained stable for up to 24 hours
- substrate for SPL ([1]; standard conditions): did not serve as a substrate for SPL
SMILES: CCCCCCCCc1ccc(CC[C@](N)(CO)COP(=O)(O)O)cc1 [FTY720-P]
- SPL gene expression (luciferase activity normalized to sea pansy luciferase) [3]: not affected

SMILES: CCCCCCCCCCCCCC1=C([C@@H](O)[C@H](CO)NC(=O)CCCCCCC)C1 [GT11, C8-cyclopropenylceramide]
- altering SPL activity [2]: capable of altering SPL activity
- non-specific cytotoxic effects (light microscopy) [5]: negligible
- LPS-stimulated lymphoproliferation ([5]; two different dosages, 24 hours preincubation, 1 or 10 μg/ml LPS, read after 48 and 72 hours): reduced

SMILES: CCCCCCCCCCCCCCCC(=O)N[C@@H](CO)[C@H](O)C1=C(CCCCCCCCCCCCC)C1 [C16-cyclopropenylceramide]
- altering SPL activity [2]: capable of altering SPL activity
